Test results reported in PMC11822212, “High-throughput screening identifies Aurora kinase B as a critical therapeutic target for Merkel cell carcinoma” (Nature Communications, 2025).
“And” between values parts separate entries of the source, which are not always exact repeats. Equal values may be shown once. Read-outs that look alike come from different tables or passages of the source.

Tests used:
[1] = tested on: control cell lines (HACAT, HEK293T, CRL-7250, NIH-3T3); experiment: qHTS cell viability, control cell lines as a group (mean AUC, Control.avg); assay type: cell-based
[2] = tested on: VP-MCC cell lines (WAGA, MKL-1, MKL-2); experiment: qHTS cell viability, VP-MCC cell lines as a group (mean AUC, VP.MCC.avg); assay type: cell-based, human
HACAT cells = experiment: qHTS cell viability (CellTiter-Glo, 72 h; primary screen), control cell line; assay type: cell-based, human
NIH-3T3 cells = experiment: as above; assay type: cell-based, mouse
[3] = tested on: six MCC cell lines and four control cell lines; experiment: qHTS cell viability, all 10 cell lines screened; assay type: cell-based
MKL-1 cells (VP-MCC) = experiment: qHTS cell viability (CellTiter-Glo, 72 h; primary and follow-up small molecule screen); assay type: cell-based, human
UISO cells (VN-MCC) = experiment: as above; assay type: cell-based, human
MKL-2 cells (VP-MCC) = experiment: as above; assay type: cell-based, human
[4] = tested on: MCC cell lines (WAGA, MKL-1, MKL-2, MCC13, MCC26, UISO); experiment: qHTS cell viability, all six MCC cell lines as a group (mean AUC, MCC.avg); assay type: cell-based, human
MCC13 cells (VN-MCC) = experiment: qHTS cell viability (CellTiter-Glo, 72 h; primary and follow-up small molecule screen); assay type: cell-based, human
WAGA cells (VP-MCC) = experiment: as above; assay type: cell-based, human
CRL-7250 cells = experiment: qHTS cell viability (CellTiter-Glo, 72 h; primary screen), control cell line; assay type: cell-based
MCC26 cells (VN-MCC) = experiment: qHTS cell viability (CellTiter-Glo, 72 h; primary and follow-up small molecule screen); assay type: cell-based, human
HEK293T cells = experiment: qHTS cell viability (CellTiter-Glo, 72 h; primary screen), control cell line; assay type: cell-based, human
[5] = tested on: VN-MCC cell lines (MCC13, MCC26, UISO); experiment: qHTS cell viability, VN-MCC cell lines as a group (mean AUC, VN.MCC.avg); assay type: cell-based, human
[6] = MIPE library, 11-point DRC, control cell line, sheet S2E
[7] = MIPE library, 11-point DRC, sheet S2E

COc1cc(NC(C)CCCN)c2ncccc2c1 (stereo not drawn) [Primaquine diphosphate]
Control_Avg_AUC [1]: 479.001 | Control-VP-MCC [2]: 69.0896 | VP-MCC_Avg_AUC [2]: 409.912 | HACAT_AUC (HACAT cells): 484.209 | NIH3T3_AUC (NIH-3T3 cells): 490.172 | Control-MCC [3]: 40.202 | MKL1_AUC (MKL-1 cells (VP-MCC)): 406.282 | UISO_AUC (UISO cells (VN-MCC)): 458.954 | MKL2_AUC (MKL-2 cells (VP-MCC)): 418.75 | MCC_Avg_AUC [4]: 438.799 | MCC13_AUC (MCC13 cells (VN-MCC)): 448.24 | WAGA_AUC (WAGA cells (VP-MCC)): 404.704 | CRL7250_AUC (CRL-7250 cells): 485.915 | MCC26_AUC (MCC26 cells (VN-MCC)): 495.867 | HEK293T_AUC (HEK293T cells): 455.709 | Control-VN-MCC [5]: 11.3144 | VN-MCC_Avg_AUC [5]: 467.687

O=C(CCCCCCC(=O)Nc1cccnc1)NO [Pyroxamide]
Control_Avg_AUC ([1]; MIPE library, mean AUC of control cell lines, sheet S2E): 453.86 | Control-VP-MCC ([2]; MIPE library, Control AUC minus VP-MCC AUC (therapeutic window), sheet S2E): 81.0267 | VP-MCC_Avg_AUC ([2]; MIPE library, mean AUC of VP-MCC cell lines, sheet S2E): 372.833 | HACAT_AUC (HACAT cells; [6]): 452.893 | NIH3T3_AUC (NIH-3T3 cells; [6]): 462.753 | Control-MCC ([3]; MIPE library, Control AUC minus MCC AUC (therapeutic window), sheet S2E): 40.3813 | MKL1_AUC (MKL-1 cells (VP-MCC); [7]): 400.642 | UISO_AUC (UISO cells (VN-MCC); [7]): 440.831 | MKL2_AUC (MKL-2 cells (VP-MCC); [7]): 371.322 | MCC_Avg_AUC ([4]; MIPE library, mean AUC of six MCC cell lines, sheet S2E): 413.478 | MCC13_AUC (MCC13 cells (VN-MCC); [7]): 454.868 | WAGA_AUC (WAGA cells (VP-MCC); [7]): 346.535 | CRL7250_AUC (CRL-7250 cells; [6]): 459.817 | MCC26_AUC (MCC26 cells (VN-MCC); [7]): 466.672 | HEK293T_AUC (HEK293T cells; [6]): 439.975 | Control-VN-MCC ([5]; MIPE library, Control AUC minus VN-MCC AUC (therapeutic window), sheet S2E): -0.2641 | VN-MCC_Avg_AUC ([5]; MIPE library, mean AUC of VN-MCC cell lines, sheet S2E): 454.124

CCN(CC)CCc1c[nH]c2ccccc12.O=C(O)/C=C/C(=O)O [N,N-Diethyltryptamine fumarate]
Control_Avg_AUC [1]: 472.357 | Control-VP-MCC [2]: 25.7182 | VP-MCC_Avg_AUC [2]: 446.639 | HACAT_AUC (HACAT cells): 490.224 and 490.225 | NIH3T3_AUC (NIH-3T3 cells): 478.712 | Control-MCC [3]: 41.0728 | MKL1_AUC (MKL-1 cells (VP-MCC)): 443.844 | UISO_AUC (UISO cells (VN-MCC)): 405.6 | MKL2_AUC (MKL-2 cells (VP-MCC)): 447.202 | MCC_Avg_AUC [4]: 431.284 | MCC13_AUC (MCC13 cells (VN-MCC)): 439.565 | WAGA_AUC (WAGA cells (VP-MCC)): 448.87 and 448.871 | CRL7250_AUC (CRL-7250 cells): 461.166 | MCC26_AUC (MCC26 cells (VN-MCC)): 402.623 | HEK293T_AUC (HEK293T cells): 459.326 | Control-VN-MCC [5]: 56.4273 | VN-MCC_Avg_AUC [5]: 415.93
